Activity calls are given as the source filed them.
Assays:
[1] = molecular target: T1, Leucine aminopeptidase (Plasmodium falciparum 3D7, UniProt Q8IL11); experiment: P. falciparum M17LAP inhibitors, primary screen, biochemical, fluorogenic H-Leu-NHMec substrate, 1536-well (AID 1619); format: functional
T1 sequence (Q8IL11 whole entry): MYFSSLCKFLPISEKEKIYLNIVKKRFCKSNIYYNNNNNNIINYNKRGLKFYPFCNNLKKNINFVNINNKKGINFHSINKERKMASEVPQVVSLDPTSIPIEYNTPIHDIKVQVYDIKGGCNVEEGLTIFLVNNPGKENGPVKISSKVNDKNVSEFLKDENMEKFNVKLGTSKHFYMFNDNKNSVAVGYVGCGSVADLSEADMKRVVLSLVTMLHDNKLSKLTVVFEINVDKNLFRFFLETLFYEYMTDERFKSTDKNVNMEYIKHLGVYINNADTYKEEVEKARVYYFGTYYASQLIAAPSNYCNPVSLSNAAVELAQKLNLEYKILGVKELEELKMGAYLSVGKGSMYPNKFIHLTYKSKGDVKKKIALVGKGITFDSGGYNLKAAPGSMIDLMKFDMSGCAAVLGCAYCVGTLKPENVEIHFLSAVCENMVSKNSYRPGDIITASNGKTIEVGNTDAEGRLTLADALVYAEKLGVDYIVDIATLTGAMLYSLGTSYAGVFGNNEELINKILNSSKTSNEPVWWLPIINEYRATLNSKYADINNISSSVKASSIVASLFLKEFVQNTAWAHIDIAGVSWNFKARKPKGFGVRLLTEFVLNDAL

[2] = molecular target: T2, Protein RecA (Mycobacterium tuberculosis, UniProt P9WHJ3); experiment: Fluorescence Cell-Free Homogeneous Dose Retest to Identify Inhibitors of RecA-Intein Splicing Activity. [Related pubchem assays (depositor defined):AID2097, AID2223, AID489010, AID492950]; format: functional
T2 sequence (P9WHJ3 whole entry): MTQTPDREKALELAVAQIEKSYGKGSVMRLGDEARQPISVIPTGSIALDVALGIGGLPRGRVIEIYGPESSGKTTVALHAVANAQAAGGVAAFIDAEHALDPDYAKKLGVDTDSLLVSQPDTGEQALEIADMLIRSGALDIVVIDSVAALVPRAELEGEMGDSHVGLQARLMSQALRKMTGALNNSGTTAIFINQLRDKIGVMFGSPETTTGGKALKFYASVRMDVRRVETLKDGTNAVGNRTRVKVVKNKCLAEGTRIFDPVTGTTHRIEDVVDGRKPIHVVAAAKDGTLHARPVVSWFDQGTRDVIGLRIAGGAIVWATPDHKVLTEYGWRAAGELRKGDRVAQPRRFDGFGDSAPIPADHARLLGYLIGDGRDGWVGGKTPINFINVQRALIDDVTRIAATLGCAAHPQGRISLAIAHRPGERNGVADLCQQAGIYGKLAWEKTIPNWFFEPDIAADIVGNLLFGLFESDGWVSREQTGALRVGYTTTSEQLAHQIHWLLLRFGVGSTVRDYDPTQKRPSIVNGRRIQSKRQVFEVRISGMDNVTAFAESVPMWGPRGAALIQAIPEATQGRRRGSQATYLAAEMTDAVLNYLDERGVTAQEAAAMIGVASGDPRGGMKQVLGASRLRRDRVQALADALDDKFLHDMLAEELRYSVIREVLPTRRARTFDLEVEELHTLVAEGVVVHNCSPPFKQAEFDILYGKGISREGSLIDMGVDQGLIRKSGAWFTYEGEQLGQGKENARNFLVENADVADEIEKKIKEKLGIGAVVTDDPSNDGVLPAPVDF

[3] = molecular target: T3, Replicative DNA helicase DnaB (Mycobacterium tuberculosis, UniProt P9WMR3); experiment: DnaB intein splicing inhibitors, dose response, biochemical, cell-free fluorescence (AID 449749); format: functional
T3 sequence (P9WMR3 whole entry): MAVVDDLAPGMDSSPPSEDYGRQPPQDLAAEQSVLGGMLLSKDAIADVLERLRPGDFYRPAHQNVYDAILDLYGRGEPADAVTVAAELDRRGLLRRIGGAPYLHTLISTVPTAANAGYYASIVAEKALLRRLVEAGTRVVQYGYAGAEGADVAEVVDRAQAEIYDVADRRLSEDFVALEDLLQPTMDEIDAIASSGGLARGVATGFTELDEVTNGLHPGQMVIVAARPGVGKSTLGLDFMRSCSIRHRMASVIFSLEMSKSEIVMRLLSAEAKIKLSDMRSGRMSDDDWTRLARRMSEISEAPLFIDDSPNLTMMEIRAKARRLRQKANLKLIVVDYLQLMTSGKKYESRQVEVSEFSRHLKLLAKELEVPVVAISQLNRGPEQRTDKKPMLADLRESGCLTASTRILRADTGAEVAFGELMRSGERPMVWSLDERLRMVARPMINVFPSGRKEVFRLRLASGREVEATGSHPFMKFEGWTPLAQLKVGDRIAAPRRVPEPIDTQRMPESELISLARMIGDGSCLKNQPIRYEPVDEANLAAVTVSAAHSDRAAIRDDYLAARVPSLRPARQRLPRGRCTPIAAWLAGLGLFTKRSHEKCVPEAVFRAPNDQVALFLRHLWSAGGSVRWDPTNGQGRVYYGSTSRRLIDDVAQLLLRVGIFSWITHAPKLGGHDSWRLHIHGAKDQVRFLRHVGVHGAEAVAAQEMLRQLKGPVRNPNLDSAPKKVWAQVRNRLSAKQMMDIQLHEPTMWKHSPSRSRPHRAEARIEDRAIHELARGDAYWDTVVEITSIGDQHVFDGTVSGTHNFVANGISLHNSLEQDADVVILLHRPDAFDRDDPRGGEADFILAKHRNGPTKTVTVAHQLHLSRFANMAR

[4] = molecular target: T4, Estrogen receptor (Homo sapiens, UniProt P03372); experiment: potentiators of ERα–SRC-1 coactivator binding, dose response, biochemical, TR-FRET, ERα LBD (AID 737)
T4 sequence (P03372 whole entry): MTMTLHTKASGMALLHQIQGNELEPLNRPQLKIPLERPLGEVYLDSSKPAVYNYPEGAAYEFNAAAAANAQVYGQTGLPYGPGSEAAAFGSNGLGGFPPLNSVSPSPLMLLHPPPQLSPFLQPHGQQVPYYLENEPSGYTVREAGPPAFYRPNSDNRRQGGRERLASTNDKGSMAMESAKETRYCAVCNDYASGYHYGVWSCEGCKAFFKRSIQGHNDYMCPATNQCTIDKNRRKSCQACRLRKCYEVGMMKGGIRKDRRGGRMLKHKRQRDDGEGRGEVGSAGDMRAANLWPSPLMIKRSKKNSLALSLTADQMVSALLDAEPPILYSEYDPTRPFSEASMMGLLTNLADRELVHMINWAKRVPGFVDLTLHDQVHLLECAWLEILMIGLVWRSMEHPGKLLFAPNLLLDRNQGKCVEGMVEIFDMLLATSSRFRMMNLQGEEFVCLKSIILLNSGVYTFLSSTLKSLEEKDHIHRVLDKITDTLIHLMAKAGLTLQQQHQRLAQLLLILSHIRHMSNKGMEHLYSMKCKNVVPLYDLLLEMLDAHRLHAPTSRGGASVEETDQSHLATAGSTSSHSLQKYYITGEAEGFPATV

[5] = molecular target: T5, Protein skinhead-1 (Caenorhabditis elegans, UniProt P34707); format: functional
T5 sequence (P34707 whole entry): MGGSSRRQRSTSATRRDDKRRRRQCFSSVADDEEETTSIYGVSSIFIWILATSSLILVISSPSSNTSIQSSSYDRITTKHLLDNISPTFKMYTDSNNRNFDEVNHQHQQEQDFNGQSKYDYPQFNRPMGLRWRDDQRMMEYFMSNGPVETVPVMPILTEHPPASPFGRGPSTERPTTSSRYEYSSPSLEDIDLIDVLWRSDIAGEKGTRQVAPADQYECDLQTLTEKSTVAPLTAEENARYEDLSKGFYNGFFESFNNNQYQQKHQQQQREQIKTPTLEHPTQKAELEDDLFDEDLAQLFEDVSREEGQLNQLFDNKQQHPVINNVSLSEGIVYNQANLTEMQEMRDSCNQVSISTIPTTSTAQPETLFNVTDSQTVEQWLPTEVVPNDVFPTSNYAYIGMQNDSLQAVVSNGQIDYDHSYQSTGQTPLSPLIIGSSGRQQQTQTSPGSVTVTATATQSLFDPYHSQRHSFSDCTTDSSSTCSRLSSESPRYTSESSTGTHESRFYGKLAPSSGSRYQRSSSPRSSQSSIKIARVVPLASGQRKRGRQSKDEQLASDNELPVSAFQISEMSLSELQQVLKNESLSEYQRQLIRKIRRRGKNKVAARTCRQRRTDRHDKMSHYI

[6] = molecular target: Transthyretin (Homo sapiens, UniProt P02766); experiment: Luminescence-based cell-based high throughput dose response assay to identify activators of Transthyretin (TTR) transcription.; format: functional
[7] = molecular target: Cytochrome P450 2C19 (Homo sapiens, UniProt P33261); experiment: Cytochrome panel assay with activity outcomes. Panel member name: p450-cyp2c19 Compounds with AC50 equal or less than 10 uM are considered active; format: functional; details: read-out: AC50
Cytochrome P450 2C19, sequence (P33261 whole entry): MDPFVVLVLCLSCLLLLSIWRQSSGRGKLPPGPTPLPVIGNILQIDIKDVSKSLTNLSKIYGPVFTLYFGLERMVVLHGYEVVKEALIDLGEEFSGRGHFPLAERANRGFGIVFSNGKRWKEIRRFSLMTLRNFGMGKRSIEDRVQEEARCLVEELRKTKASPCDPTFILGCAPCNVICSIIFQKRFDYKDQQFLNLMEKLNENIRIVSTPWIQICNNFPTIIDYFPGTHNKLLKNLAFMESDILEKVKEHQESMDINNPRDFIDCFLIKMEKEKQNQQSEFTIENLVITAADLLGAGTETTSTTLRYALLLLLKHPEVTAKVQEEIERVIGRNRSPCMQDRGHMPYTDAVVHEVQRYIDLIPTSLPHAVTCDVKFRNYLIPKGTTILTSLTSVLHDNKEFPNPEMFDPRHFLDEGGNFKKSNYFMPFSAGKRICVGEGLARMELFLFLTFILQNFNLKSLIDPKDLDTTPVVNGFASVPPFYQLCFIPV

[8] = molecular target: T6, Estrogen receptor beta (Homo sapiens, UniProt Q92731); experiment: ERβ–SRC-3 coactivator interaction inhibitors, confirmation, orthogonal assay, biochemical, ELISA, streptavidin-HRP readout (AID 1060)
T6 sequence (Q92731 whole entry): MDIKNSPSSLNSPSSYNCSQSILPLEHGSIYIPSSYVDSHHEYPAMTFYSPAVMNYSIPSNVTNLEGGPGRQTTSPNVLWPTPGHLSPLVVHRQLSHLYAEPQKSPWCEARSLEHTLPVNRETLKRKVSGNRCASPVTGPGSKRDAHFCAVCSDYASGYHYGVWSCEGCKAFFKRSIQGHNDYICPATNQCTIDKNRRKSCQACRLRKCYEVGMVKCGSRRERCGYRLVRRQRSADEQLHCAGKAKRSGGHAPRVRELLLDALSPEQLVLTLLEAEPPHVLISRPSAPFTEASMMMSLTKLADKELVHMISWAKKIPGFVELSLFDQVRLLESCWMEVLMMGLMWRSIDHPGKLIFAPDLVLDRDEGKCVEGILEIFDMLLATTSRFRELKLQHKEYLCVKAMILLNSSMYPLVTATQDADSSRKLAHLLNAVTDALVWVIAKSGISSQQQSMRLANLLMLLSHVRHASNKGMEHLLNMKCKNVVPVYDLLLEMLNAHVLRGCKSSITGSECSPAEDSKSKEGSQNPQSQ

[9] = molecular target: T6, Estrogen receptor beta

## CCOc1ccccc1C1C(C#N)=C(N)Nc2onc(-c3ccccc3)c21 (stereo unspecified)
[1]
  IC50: 52.7 µM (active)
[2]
  EC50: 1.39 µM (active)
[3]
  AC50: 2.47 µM (active)
[4]
  EC50: 17.5 µM (active)

## CCOc1ccc(CC2SC(Nc3ccccn3)=NC2=O)cc1 (stereo unspecified)
[4]
  EC50: 25.1 µM (active)

## O=[N+]([O-])c1cccc(-c2noc(-c3ccco3)n2)c1
[5]
  IC50: > 100 µM (inactive)
[6]
  EC50: > 167 µM (inactive)

## Nc1cc(-c2nnn[nH]2)ccc1F
[7]
  AC50: 28.2 µM (inconclusive)
[8]
  IC50: 0.859 µM (not active)

## CCOC(=O)c1c(C)[nH]c(C)c1C(=O)COC(=O)CCOc1ccccc1OC
[9]
  IC50: 35.3 µM (not active)
[8]
  IC50: > 109 µM (not active)

— ChEMBL document CHEMBL1201862, “PubChem BioAssay data set” (2004)
